Earlier results, collected in patent publication US9498424B2, “Active mixtures of acylated oligopeptides and troxerutin” (Symrise AG, priority 2013, dated 2016).

System: mice

With `C[C@@H]1O[C@@H](OC[C@H]2O[C@@H](Oc3c(-c4ccc(OCCO)c(OCCO)c4)oc4cc(OCCO)cc(O)c4c3=O)[C@H](O)[C@@H](O)[C@@H]2O)[C@H](O)[C@H](O)[C@H]1O` [Troxerutin] as the compound, how does the CNS insulin resistance read?
Its CNS insulin resistance is “reverse CNS insulin resistance”.

And the “reactive oxygen species induced by a high-cholesterol diet” value?
Its value is “reduce reactive oxygen species”.
